# Test results taken from the supplement of paper PMC8967900.
# Key:
# Assay in all cases: selective drug sensitivity score (sDSS, relative to normal bone marrow) (sDSS (score)); higher = more potent and effective on the cell line relative to normal bone marrow cells
# Conditions in all cases: 72 h
# COG-LL-394h = system: COG-LL-394h
# CCRF-CEM = system: CCRF-CEM
# KASUMI-10 = system: KASUMI-10
# JURKAT = system: JURKAT
# NALM-6 = system: NALM-6
# COG-LL-402h = system: COG-LL-402h
# ALL-SIL = system: ALL-SIL
# MHH-CALL-4 = system: MHH-CALL-4
# KASUMI-9 = system: KASUMI-9
# 697 = system: 697
# 380 = system: 380
# MHH-CALL-3 = system: MHH-CALL-3
# MOLT-4 = system: MOLT-4
# TMD5 = system: TMD5
# COG-LL-317 = system: COG-LL-317
# NALM-16 = system: NALM-16
# KASUMI-2 = system: KASUMI-2
# KOPN-8 = system: KOPN-8
# HPB-ALL = system: HPB-ALL
# PF-382 = system: PF-382
# 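Note: ALL cell lines in 384-well plates, five doses spanning 10,000-fold, each plate scaled between vehicle and 100 µmol/L benzalkonium chloride controls, sDSS an adapted area-under-curve metric.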
SMILES,selective drug sensitivity score (COG-LL-394h),selective drug sensitivity score (CCRF-CEM),selective drug sensitivity score (KASUMI-10),selective drug sensitivity score (JURKAT),selective drug sensitivity score (NALM-6),selective drug sensitivity score (COG-LL-402h),selective drug sensitivity score (ALL-SIL),selective drug sensitivity score (MHH-CALL-4),selective drug sensitivity score (KASUMI-9),selective drug sensitivity score 697,selective drug sensitivity score 380,selective drug sensitivity score (MHH-CALL-3),selective drug sensitivity score (MOLT-4),selective drug sensitivity score (TMD5),selective drug sensitivity score (COG-LL-317),selective drug sensitivity score (NALM-16),selective drug sensitivity score (KASUMI-2),selective drug sensitivity score (KOPN-8),selective drug sensitivity score (HPB-ALL),selective drug sensitivity score (PF-382)
Cc1cnc(NC(=O)Nc2cc(Br)c(C)cc2OC[C@@H]2CNCCO2)cn1 [Rabusertib] (top concentration 1000 nM),-0.74,0.06,-0.74,-0.74,1.16,1.36,-0.74,0.16,-0.04,-0.74,-0.74,-0.74,-0.74,-0.74,7.36,-0.74,-0.74,1.66,-0.74,-0.64
CCCN(CCC)C(=O)C1=Cc2ccc(-c3ccc(C(=O)N4CCCC4)cc3)cc2N=C(N)C1 [Motolimod] (top concentration 10000 nM),0.42,-3.38,-2.28,-2.58,-3.38,-4.48,-3.48,-4.48,1.22,-2.68,-4.38,-4.48,-4.08,-3.48,-4.08,-4.48,-4.48,1.52,-3.38,-2.28
CCCOc1ccn2c(C(C)=O)cc(-c3ccccc3S(C)(=O)=O)c2c1 [GSK2801] (top concentration 10000 nM),-0.16,-0.26,-0.36,-0.26,-0.36,-0.36,-0.36,-0.36,-0.36,-0.16,3.44,-0.36,-0.16,-0.36,0.84,-0.36,4.84,1.94,-0.36,0.54
Cc1cc(C)c(CNC(=O)c2cc(-c3ccc(CN4CCOCC4)cc3)cc3c2cnn3C2CCCC2)c(=O)[nH]1 [EPZ-5687] (top concentration 10000 nM),-0.36,0.14,-0.36,-0.36,-0.36,-0.36,-0.36,-0.36,3.14,-0.36,-0.36,-0.36,-0.36,5.74,-0.36,-0.36,-0.36,-0.36,-0.36,-0.36
C/C(=C\c1csc(C)n1)[C@@H]1C[C@@H]2O[C@]2(C)CCC[C@H](C)[C@H](O)[C@@H](C)C(=O)C(C)(C)[C@@H](O)CC(=O)N1 [Ixabepilone] (top concentration 1000 nM),2.18,3.08,1.58,3.28,4.48,1.58,2.98,0.58,2.58,4.68,2.08,-0.42,3.98,0.28,2.98,2.88,1.48,6.98,7.08,1.68
CN(CC(=O)N(Cc1ccc(C2CCCCC2)cc1)c1ccc(C(=O)O)cc1)S(=O)(=O)c1c(F)c(F)c(F)c(F)c1F [SH-4-54] (top concentration 25000 nM),-5.34,-4.54,-3.64,-6.14,-3.34,-2.14,-3.84,-5.44,-6.14,-2.64,6.06,-0.84,-6.04,-5.94,-5.44,-5.04,-2.84,-1.94,-6.84,-3.74
Nc1cc(COc2c(Cl)cc(C[C@H](N)C(=O)O)cc2Cl)c2oc(-c3ccccc3)nc2c1 [JPH203] (top concentration 5000 nM),0,0,0.2,0,0,0,0,1.2,2.2,0,1.2,0,0,2.1,0,0,0,0,0,0
CCN(CC)CCN(Cc1ccc(-c2ccc(C(F)(F)F)cc2)cc1)C(=O)Cn1c(SCc2ccc(F)cc2)nc(=O)c2c1CCC2 [Darapladib] (top concentration 1000 nM),-1.42,-1.42,-1.22,-1.42,-1.42,-1.42,-1.42,2.68,-1.32,-1.42,-1.42,-1.42,-1.42,6.98,-1.42,-0.52,0.98,7.18,-1.42,-1.22
Cn1cc(C[C@@H](N)C(=O)O)c2ccccc21 [1-methyl-D-tryptophan] (top concentration 5000 nM),-0.62,-0.62,-0.62,-0.62,-0.62,-0.62,-0.62,-0.62,-0.62,-0.62,-0.02,1.48,-0.62,-0.62,-0.62,-0.62,0.38,1.18,-0.62,-0.62
CCc1cc2c(cc1N1CCC(N3CCOCC3)CC1)C(C)(C)c1[nH]c3cc(C#N)ccc3c1C2=O [Alectinib] (top concentration 1000 nM),2.58,0.18,1.68,-0.22,1.28,1.48,-0.22,-0.12,0.88,2.48,0.38,-0.22,-0.22,-0.22,5.48,-0.22,1.08,1.38,-0.22,-0.22
C=CC(=O)N1CCC(Oc2cc3c(Nc4ccc(Cl)c(Cl)c4F)ncnc3cc2OC)CC1 [Poziotinib] (top concentration 1000 nM),-0.22,-0.22,-0.22,-0.22,-0.22,1.58,3.48,0.68,0.98,-0.22,-0.22,3.08,-0.22,1.28,2.68,-0.22,5.98,-0.22,-0.12,-0.22
COc1cc(C)[nH]c(=O)c1CNC(=O)c1c(C)n([C@H](C)C2CCOCC2)c2ccccc12 [CPI-360] (top concentration 10000 nM),0,0,0,0.1,0,0,0,0,0,0,5.1,0,0,0,0,0,0,0,0,0
Cn1nnc2c(C(N)=O)ncn2c1=O [Temozolomide] (top concentration 100000 nM),-0.04,7.16,-0.04,2.36,2.26,-0.04,4.66,-0.04,6.16,3.76,5.66,4.76,1.86,-0.04,-0.04,-0.04,-0.04,-0.04,-0.04,3.16
NC(=O)c1cccc(-c2cccc(OC(=O)NC3CCCCC3)c2)c1 [URB597] (top concentration 1000 nM),-0.46,-0.46,-0.46,-0.46,2.44,-0.46,-0.46,-0.46,0.04,-0.36,2.44,-0.46,-0.46,-0.46,-0.46,-0.46,-0.46,-0.36,-0.26,-0.46
CCN(CC)CCCC(C)Nc1ccnc2cc(Cl)ccc12 (stereo not given) [Chloroquine] (top concentration 100000 nM),-4.54,-2.94,-4.24,-5.04,-2.74,-3.94,-0.74,-1.44,-1.94,-2.14,-4.94,-6.04,-7.24,-4.54,0.36,-5.24,-8.14,-1.14,-6.64,-2.34
C=CCc1cccc(/C=N/NC(=O)CN2CCN(Cc3ccccc3)CC2)c1O [PAC-1] (top concentration 10000 nM),1.08,5.18,0.98,1.28,2.18,4.98,3.18,1.18,0.38,4.08,0.38,-0.22,2.58,0.98,12.7,3.58,-0.72,5.28,0.98,2.78
Cc1cc(F)c(C(=O)Nc2cccc(-c3nncn3C(C)C)n2)cc1-n1cnc(C2CC2)c1 [Selonsertib] (top concentration 1000 nM),0,0,0,0,0,0,0,0.2,1.2,0.3,1,0,0,6.7,0,0,0,0,0,0
COCCOc1cnc2ccn([C@H](C)c3nnc4c(F)cc(-c5cnn(C)c5)cn34)c(=O)c2c1 [AMG-337] (top concentration 10000 nM),-0.06,-0.06,-0.06,-0.06,-0.06,-0.06,-0.06,-0.06,0.14,-0.06,3.04,4.94,-0.06,-0.06,-0.06,-0.06,2.14,1.54,1.54,-0.06
